In US9340590B2 (priority 2011, dated 2016):
Like-named read-outs stand apart in the source and are kept apart here. Positions of bridges follow the written chain, without caps; N, C: chain ends. Non-standard residues stand in square brackets, D forms with d. Residues, ends and D or L forms follow the SMILES beside them. Cha = N[C@@H](CC1CCCCC1)C(=O)O

How the values were obtained:
Experiment in all cases: cell-based
hNav1.7 = hNav1.7 (Homo sapiens, UniProt Q15858); type: cell-based
hNav1.3 = hNav1.3 (Homo sapiens, UniProt Q9NY46); conditions: IonWorks Quattro, use-dependent protocol, hNav1.3; read-out: IWQ Use Nav1.3
hNav1.5 = hNav1.5 (Homo sapiens, UniProt Q14524)
[1] = IonWorks Quattro, use-dependent protocol, hNav1.5, read-out: IWQ Use Nav1.5
[2] = IonWorks Quattro, use-dependent protocol, hNav1.7, read-out: IWQ Use Nav1.7

Sequence of hNav1.5 (Q14524 whole entry, looked up): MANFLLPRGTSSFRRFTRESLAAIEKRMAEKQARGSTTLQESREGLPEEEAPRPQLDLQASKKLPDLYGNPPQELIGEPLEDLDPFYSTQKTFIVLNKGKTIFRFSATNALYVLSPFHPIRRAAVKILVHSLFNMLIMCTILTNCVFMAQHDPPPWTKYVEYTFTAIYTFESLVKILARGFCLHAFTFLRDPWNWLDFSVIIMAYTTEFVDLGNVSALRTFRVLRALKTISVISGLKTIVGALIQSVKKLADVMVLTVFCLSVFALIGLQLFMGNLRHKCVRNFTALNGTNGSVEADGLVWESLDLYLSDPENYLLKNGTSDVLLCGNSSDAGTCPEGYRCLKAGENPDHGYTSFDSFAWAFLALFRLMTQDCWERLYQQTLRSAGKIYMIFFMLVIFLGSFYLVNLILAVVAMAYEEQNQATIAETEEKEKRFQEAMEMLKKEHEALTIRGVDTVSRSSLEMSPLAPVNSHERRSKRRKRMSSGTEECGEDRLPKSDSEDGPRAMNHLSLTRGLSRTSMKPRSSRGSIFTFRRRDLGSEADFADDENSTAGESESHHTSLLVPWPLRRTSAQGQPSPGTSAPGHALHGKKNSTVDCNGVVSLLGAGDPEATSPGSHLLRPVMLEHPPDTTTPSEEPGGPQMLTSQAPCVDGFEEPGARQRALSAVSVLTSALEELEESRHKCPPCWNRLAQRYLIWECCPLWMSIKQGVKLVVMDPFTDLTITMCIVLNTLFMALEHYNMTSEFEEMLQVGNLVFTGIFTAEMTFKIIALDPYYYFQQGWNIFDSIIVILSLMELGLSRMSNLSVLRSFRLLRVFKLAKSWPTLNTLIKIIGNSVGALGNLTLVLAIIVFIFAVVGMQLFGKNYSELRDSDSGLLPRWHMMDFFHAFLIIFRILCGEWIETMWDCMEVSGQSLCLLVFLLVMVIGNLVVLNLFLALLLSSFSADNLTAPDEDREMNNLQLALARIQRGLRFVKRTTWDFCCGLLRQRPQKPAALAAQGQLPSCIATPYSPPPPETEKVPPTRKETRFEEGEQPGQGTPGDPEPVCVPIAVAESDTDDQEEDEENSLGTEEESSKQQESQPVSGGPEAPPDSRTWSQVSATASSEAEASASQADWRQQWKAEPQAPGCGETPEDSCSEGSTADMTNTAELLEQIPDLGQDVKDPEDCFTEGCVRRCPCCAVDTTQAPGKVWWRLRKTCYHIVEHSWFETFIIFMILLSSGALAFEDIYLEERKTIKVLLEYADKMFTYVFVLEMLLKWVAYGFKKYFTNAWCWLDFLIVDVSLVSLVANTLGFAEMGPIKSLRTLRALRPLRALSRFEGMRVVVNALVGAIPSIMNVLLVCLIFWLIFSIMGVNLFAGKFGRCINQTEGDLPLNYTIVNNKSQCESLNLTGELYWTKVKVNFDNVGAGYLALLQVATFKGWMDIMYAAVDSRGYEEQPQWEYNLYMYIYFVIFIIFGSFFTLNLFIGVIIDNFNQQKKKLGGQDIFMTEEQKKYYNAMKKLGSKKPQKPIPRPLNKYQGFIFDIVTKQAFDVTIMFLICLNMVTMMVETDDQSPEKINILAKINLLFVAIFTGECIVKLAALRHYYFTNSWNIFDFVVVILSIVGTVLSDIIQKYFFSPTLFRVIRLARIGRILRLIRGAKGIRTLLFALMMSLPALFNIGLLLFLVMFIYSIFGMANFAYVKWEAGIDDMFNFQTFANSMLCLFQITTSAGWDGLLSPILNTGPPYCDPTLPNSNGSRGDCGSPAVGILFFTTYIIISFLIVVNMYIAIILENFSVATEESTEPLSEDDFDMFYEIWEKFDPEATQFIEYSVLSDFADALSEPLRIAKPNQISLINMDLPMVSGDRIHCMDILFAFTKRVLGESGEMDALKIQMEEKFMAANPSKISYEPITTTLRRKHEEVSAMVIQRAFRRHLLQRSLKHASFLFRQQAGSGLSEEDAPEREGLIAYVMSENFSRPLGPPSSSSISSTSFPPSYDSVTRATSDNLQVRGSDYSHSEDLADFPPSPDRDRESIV
Sequence of hNav1.3 (Q9NY46 whole entry, looked up): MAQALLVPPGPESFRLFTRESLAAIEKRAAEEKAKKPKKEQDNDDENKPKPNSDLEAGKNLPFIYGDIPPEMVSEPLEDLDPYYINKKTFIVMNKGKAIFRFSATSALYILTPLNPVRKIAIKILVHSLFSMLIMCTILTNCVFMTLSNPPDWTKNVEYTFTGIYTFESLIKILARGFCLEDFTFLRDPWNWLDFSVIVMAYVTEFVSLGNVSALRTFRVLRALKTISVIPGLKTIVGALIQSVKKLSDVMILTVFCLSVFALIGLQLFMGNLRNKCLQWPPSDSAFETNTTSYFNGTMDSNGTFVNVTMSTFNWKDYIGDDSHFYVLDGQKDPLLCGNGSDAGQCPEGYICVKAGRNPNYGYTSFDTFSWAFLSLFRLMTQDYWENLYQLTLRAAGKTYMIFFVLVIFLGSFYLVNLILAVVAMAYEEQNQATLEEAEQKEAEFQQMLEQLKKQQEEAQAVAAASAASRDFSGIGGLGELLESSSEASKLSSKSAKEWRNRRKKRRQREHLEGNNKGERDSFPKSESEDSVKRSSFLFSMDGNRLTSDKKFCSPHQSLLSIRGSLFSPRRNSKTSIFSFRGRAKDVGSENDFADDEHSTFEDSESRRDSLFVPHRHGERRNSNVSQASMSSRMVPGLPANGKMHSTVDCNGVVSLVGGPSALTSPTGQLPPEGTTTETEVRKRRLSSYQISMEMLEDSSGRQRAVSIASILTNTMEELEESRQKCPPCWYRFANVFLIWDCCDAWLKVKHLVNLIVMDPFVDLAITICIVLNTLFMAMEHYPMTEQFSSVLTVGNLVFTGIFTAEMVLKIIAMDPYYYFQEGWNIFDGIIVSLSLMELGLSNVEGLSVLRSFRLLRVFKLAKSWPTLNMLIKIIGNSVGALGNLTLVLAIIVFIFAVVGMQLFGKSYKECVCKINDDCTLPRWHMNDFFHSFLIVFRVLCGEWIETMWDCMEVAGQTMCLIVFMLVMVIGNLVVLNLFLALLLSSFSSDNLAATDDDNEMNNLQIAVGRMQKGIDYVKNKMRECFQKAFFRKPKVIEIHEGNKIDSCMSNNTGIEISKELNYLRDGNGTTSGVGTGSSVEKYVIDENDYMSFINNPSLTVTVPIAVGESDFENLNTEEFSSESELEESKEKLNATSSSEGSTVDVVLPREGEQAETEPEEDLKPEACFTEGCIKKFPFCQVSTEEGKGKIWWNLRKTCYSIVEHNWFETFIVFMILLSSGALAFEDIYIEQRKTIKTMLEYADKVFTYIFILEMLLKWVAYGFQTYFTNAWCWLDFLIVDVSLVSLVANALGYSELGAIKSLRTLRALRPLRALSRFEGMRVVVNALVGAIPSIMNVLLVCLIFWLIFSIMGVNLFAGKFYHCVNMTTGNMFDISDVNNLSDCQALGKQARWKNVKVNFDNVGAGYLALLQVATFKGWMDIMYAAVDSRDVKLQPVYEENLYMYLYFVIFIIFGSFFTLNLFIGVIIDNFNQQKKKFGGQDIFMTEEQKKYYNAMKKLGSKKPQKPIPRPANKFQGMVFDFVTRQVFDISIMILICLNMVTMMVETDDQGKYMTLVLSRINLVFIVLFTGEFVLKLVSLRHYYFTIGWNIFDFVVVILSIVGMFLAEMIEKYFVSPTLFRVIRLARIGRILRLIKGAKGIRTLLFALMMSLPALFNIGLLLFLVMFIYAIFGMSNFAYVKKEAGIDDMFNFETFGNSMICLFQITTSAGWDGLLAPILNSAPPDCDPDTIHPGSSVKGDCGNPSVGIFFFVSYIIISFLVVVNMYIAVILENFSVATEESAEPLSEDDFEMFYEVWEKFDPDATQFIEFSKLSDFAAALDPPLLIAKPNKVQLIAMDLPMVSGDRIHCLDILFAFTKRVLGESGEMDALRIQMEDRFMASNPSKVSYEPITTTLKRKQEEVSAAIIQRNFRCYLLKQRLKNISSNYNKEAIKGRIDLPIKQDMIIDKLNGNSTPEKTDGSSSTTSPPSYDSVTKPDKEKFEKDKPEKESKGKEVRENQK

## CC[C@H](C)[C@@H]1NC(=O)[C@@H]2CSSC[C@@H]3NC(=O)[C@H](C(C)C)NC(=O)[C@H](CC(C)C)NC(=O)[C@H](CC(N)=O)NC(=O)[C@@H]4CCCN4C(=O)[C@H](CCCNC(=N)N)NC(=O)[C@H](CSSC[C@H](NC(=O)[C@@H](N)CC(=O)O)C(=O)N[C@@H](CC(C)C)C(=O)NCC(=O)N[C@@H](CC4CCCCC4)C(=O)N[C@@H](Cc4ccccc4)C(=O)N[C@@H](CCCNC(=N)N)C(=O)N[C@@H](CCCCN)C(=O)N2)NC(=O)[C@H](CSSC[C@@H](C(=O)N[C@@H](CCCCN)C(=O)N[C@@H](Cc2ccc(O)cc2)C(=O)N[C@H](C(=O)N[C@@H](Cc2ccccc2)C(N)=O)C(C)C)NC(=O)[C@H](Cc2c[nH]c4ccccc24)NC(=O)[C@H](CCCCN)NC(=O)[C@H](Cc2c[nH]cn2)NC(=O)[C@H]([C@@H](C)O)NC(=O)[C@H](CCCNC(=N)N)NC(=O)[C@H](CO)NC3=O)NC(=O)[C@H](CCCCN)NC(=O)[C@H](CC(=O)O)NC(=O)[C@H](CC(N)=O)NC(=O)[C@H](CC(=O)O)NC(=O)[C@@H]2CCCN2C1=O [compound 680] (H-DCLG[Cha]FRKCIPDNDKCCRPNLVCSRTHKWCKYVF-NH2; disulfide 2-17, 9-23, 16-30)
hNav1.7
  IC50: 19 nM
hNav1.3
  IC50: 32 nM
hNav1.5; [1]
  IC50: 3500 nM

## CC[C@H](C)[C@@H]1NC(=O)[C@@H]2CSSC[C@@H]3NC(=O)[C@H](C(C)C)NC(=O)[C@H](CC(C)C)NC(=O)[C@H](CC(N)=O)NC(=O)[C@@H]4CCCN4C(=O)[C@H](CCCNC(=N)N)NC(=O)[C@H](CSSC[C@H](NC(=O)[C@@H](N)CC(=O)O)C(=O)N[C@@H](CC(C)C)C(=O)NCC(=O)N[C@@H](CC4CCCCC4)C(=O)N[C@@H](CC(C)C)C(=O)N[C@@H](CCCNC(=N)N)C(=O)N[C@@H](CCCCN)C(=O)N2)NC(=O)[C@H](CSSC[C@@H](C(=O)N[C@@H](CCCCN)C(=O)N[C@@H](Cc2ccc(O)cc2)C(=O)N[C@H](C(=O)N[C@@H](Cc2ccccc2)C(N)=O)C(C)C)NC(=O)[C@H](Cc2c[nH]c4ccccc24)NC(=O)[C@H](CCCCN)NC(=O)[C@H](Cc2c[nH]cn2)NC(=O)[C@H]([C@@H](C)O)NC(=O)[C@H](CCCNC(=N)N)NC(=O)[C@H](CO)NC3=O)NC(=O)[C@H](CCCCN)NC(=O)[C@H](CC(=O)O)NC(=O)[C@H](CC(N)=O)NC(=O)[C@H](CC(=O)O)NC(=O)[C@@H]2CCCN2C1=O [compound 681]
hNav1.7; [2]
  IC50: 23 nM
hNav1.3
  IC50: 79 nM
hNav1.5; [1]
  IC50: > 5000 nM

## CC[C@H](C)[C@@H]1NC(=O)[C@@H]2CSSC[C@@H]3NC(=O)[C@H](C(C)C)NC(=O)[C@H](CC(C)C)NC(=O)[C@H](CC(N)=O)NC(=O)[C@@H]4CCCN4C(=O)[C@H](CCCNC(=N)N)NC(=O)[C@H](CSSC[C@H](NC(=O)[C@@H](N)CC(=O)O)C(=O)N[C@@H](CC(C)C)C(=O)NCC(=O)N[C@@H](Cc4cccs4)C(=O)N[C@@H](CCSC)C(=O)N[C@@H](CCCNC(=N)N)C(=O)N[C@@H](CCCCN)C(=O)N2)NC(=O)[C@H](CSSC[C@@H](C(=O)N[C@@H](CCCCN)C(=O)N[C@@H](Cc2ccc(O)cc2)C(=O)N[C@H](C(=O)N[C@@H](Cc2ccccc2)C(N)=O)C(C)C)NC(=O)[C@H](Cc2c[nH]c4ccccc24)NC(=O)[C@H](CCCCN)NC(=O)[C@H](Cc2c[nH]cn2)NC(=O)[C@H]([C@@H](C)O)NC(=O)[C@H](CCCNC(=N)N)NC(=O)[C@H](CO)NC3=O)NC(=O)[C@H](CCCCN)NC(=O)[C@H](CC(=O)O)NC(=O)[C@H](CC(N)=O)NC(=O)[C@H](CC(=O)O)NC(=O)[C@@H]2CCCN2C1=O [compound 682]
hNav1.7; [2]
  IC50: 110 nM
hNav1.3
  IC50: 280 nM
hNav1.5; [1]
  IC50: > 5000 nM

## CC[C@H](C)[C@@H]1NC(=O)[C@@H]2CSSC[C@@H]3NC(=O)[C@H](C(C)C)NC(=O)[C@H](CC(C)C)NC(=O)[C@H](CC(N)=O)NC(=O)[C@@H]4CCCN4C(=O)[C@H](CCCNC(=N)N)NC(=O)[C@H](CSSC[C@H](NC(=O)[C@@H](N)CC(=O)O)C(=O)N[C@@H](CC(C)C)C(=O)NCC(=O)N[C@@H](C4CCCC4)C(=O)N[C@@H](CCSC)C(=O)N[C@@H](CCCNC(=N)N)C(=O)N[C@@H](CCCCN)C(=O)N2)NC(=O)[C@H](CSSC[C@@H](C(=O)N[C@@H](CCCCN)C(=O)N[C@@H](Cc2ccc(O)cc2)C(=O)N[C@H](C(=O)N[C@@H](Cc2ccccc2)C(N)=O)C(C)C)NC(=O)[C@H](Cc2c[nH]c4ccccc24)NC(=O)[C@H](CCCCN)NC(=O)[C@H](Cc2cnc[nH]2)NC(=O)[C@H]([C@@H](C)O)NC(=O)[C@H](CCCNC(=N)N)NC(=O)[C@H](CO)NC3=O)NC(=O)[C@H](CCCCN)NC(=O)[C@H](CC(=O)O)NC(=O)[C@H](CC(N)=O)NC(=O)[C@H](CC(=O)O)NC(=O)[C@@H]2CCCN2C1=O [compound 683]
hNav1.7; [2]
  IC50: 230 nM
hNav1.3
  IC50: 630 nM
hNav1.5; IWQ Use Nav1.5
  IC50: > 5000 nM

## CC[C@H](C)[C@@H]1NC(=O)[C@@H]2CSSC[C@@H]3NC(=O)[C@H](C(C)C)NC(=O)[C@H](CC(C)C)NC(=O)[C@H](CC(N)=O)NC(=O)[C@@H]4CCCN4C(=O)[C@H](CCCNC(=N)N)NC(=O)[C@H](CSSC[C@H](NC(=O)[C@@H](N)CC(=O)O)C(=O)N[C@@H](CC(C)C)C(=O)NCC(=O)N[C@@H](C4CCCCC4)C(=O)N[C@@H](CCSC)C(=O)N[C@@H](CCCNC(=N)N)C(=O)N[C@@H](CCCCN)C(=O)N2)NC(=O)[C@H](CSSC[C@@H](C(=O)N[C@@H](CCCCN)C(=O)N[C@@H](Cc2ccc(O)cc2)C(=O)N[C@H](C(=O)N[C@@H](Cc2ccccc2)C(N)=O)C(C)C)NC(=O)[C@H](Cc2c[nH]c4ccccc24)NC(=O)[C@H](CCCCN)NC(=O)[C@H](Cc2cnc[nH]2)NC(=O)[C@H]([C@@H](C)O)NC(=O)[C@H](CCCNC(=N)N)NC(=O)[C@H](CO)NC3=O)NC(=O)[C@H](CCCCN)NC(=O)[C@H](CC(=O)O)NC(=O)[C@H](CC(N)=O)NC(=O)[C@H](CC(=O)O)NC(=O)[C@@H]2CCCN2C1=O [compound 684]
hNav1.7; [2]
  IC50: 130 nM
hNav1.3
  IC50: 360 nM
hNav1.5; [1]
  IC50: > 5000 nM

## CC[C@H](C)[C@@H]1NC(=O)[C@@H]2CSSC[C@@H]3NC(=O)[C@H](C(C)C)NC(=O)[C@H](CC(C)C)NC(=O)[C@H](CC(N)=O)NC(=O)[C@@H]4CCCN4C(=O)[C@H](CCCNC(=N)N)NC(=O)[C@H](CSSC[C@H](NC(=O)[C@@H](N)CC(=O)O)C(=O)N[C@@H](CC(C)C)C(=O)NCC(=O)N[C@@H](Cc4ccc(C(=O)c5ccccc5)cc4)C(=O)N[C@@H](CCSC)C(=O)N[C@@H](CCCNC(=N)N)C(=O)N[C@@H](CCCCN)C(=O)N2)NC(=O)[C@H](CSSC[C@@H](C(=O)N[C@@H](CCCCN)C(=O)N[C@@H](Cc2ccc(O)cc2)C(=O)N[C@H](C(=O)N[C@@H](Cc2ccccc2)C(N)=O)C(C)C)NC(=O)[C@H](Cc2c[nH]c4ccccc24)NC(=O)[C@H](CCCCN)NC(=O)[C@H](Cc2c[nH]cn2)NC(=O)[C@H]([C@@H](C)O)NC(=O)[C@H](CCCNC(=N)N)NC(=O)[C@H](CO)NC3=O)NC(=O)[C@H](CCCCN)NC(=O)[C@H](CC(=O)O)NC(=O)[C@H](CC(N)=O)NC(=O)[C@H](CC(=O)O)NC(=O)[C@@H]2CCCN2C1=O [compound 685]
hNav1.7; [2]
  IC50: 680 nM
hNav1.3
  IC50: 150 nM
hNav1.5; [1]
  IC50: > 5000 nM

## CC[C@H](C)[C@@H]1NC(=O)[C@@H]2CSSC[C@@H]3NC(=O)[C@H](C(C)C)NC(=O)[C@H](CC(C)C)NC(=O)[C@H](CC(N)=O)NC(=O)[C@@H]4CCCN4C(=O)[C@H](CCCNC(=N)N)NC(=O)[C@H](CSSC[C@H](NC(=O)[C@@H](N)CC(=O)O)C(=O)N[C@@H](CC(C)C)C(=O)NCC(=O)N[C@@H](Cc4ccc(C)cc4)C(=O)N[C@@H](CCSC)C(=O)N[C@@H](CCCNC(=N)N)C(=O)N[C@@H](CCCCN)C(=O)N2)NC(=O)[C@H](CSSC[C@@H](C(=O)N[C@@H](CCCCN)C(=O)N[C@@H](Cc2ccc(O)cc2)C(=O)N[C@H](C(=O)N[C@@H](Cc2ccccc2)C(N)=O)C(C)C)NC(=O)[C@H](Cc2c[nH]c4ccccc24)NC(=O)[C@H](CCCCN)NC(=O)[C@H](Cc2c[nH]cn2)NC(=O)[C@H]([C@@H](C)O)NC(=O)[C@H](CCCNC(=N)N)NC(=O)[C@H](CO)NC3=O)NC(=O)[C@H](CCCCN)NC(=O)[C@H](CC(=O)O)NC(=O)[C@H](CC(N)=O)NC(=O)[C@H](CC(=O)O)NC(=O)[C@@H]2CCCN2C1=O [compound 686]
hNav1.7; [2]
  IC50: 490 nM
hNav1.3
  IC50: 180 nM
hNav1.5; IWQ Use Nav1.5
  IC50: > 5000 nM

## CC[C@H](C)[C@@H]1NC(=O)[C@@H]2CSSC[C@@H]3NC(=O)[C@H](C(C)C)NC(=O)[C@H](CC(C)C)NC(=O)[C@H](CC(N)=O)NC(=O)[C@@H]4CCCN4C(=O)[C@H](CCCNC(=N)N)NC(=O)[C@H](CSSC[C@H](NC(=O)[C@@H](N)CC(=O)O)C(=O)N[C@@H](CC(C)C)C(=O)NCC(=O)N[C@@H](Cc4ccc(C(C)(C)C)cc4)C(=O)N[C@@H](CCSC)C(=O)N[C@@H](CCCNC(=N)N)C(=O)N[C@@H](CCCCN)C(=O)N2)NC(=O)[C@H](CSSC[C@@H](C(=O)N[C@@H](CCCCN)C(=O)N[C@@H](Cc2ccc(O)cc2)C(=O)N[C@H](C(=O)N[C@@H](Cc2ccccc2)C(N)=O)C(C)C)NC(=O)[C@H](Cc2c[nH]c4ccccc24)NC(=O)[C@H](CCCCN)NC(=O)[C@H](Cc2c[nH]cn2)NC(=O)[C@H]([C@@H](C)O)NC(=O)[C@H](CCCNC(=N)N)NC(=O)[C@H](CO)NC3=O)NC(=O)[C@H](CCCCN)NC(=O)[C@H](CC(=O)O)NC(=O)[C@H](CC(N)=O)NC(=O)[C@H](CC(=O)O)NC(=O)[C@@H]2CCCN2C1=O [compound 687]
hNav1.7; [2]
  IC50: 270 nM
hNav1.3
  IC50: 130 nM
hNav1.5; IWQ Use Nav1.5
  IC50: > 5000 nM
